Results as given in US9422239B1, “Dual PPAR-δ PPAR-γ agonists” (Auburn University, priority 2013, dated 2016).
Entries after “also recorded” stand apart in the source; their conditions may differ.

Legend:
PPARγ (AP2-PPRE) = target: T1, PPARγ (AP2-PPRE) (Homo sapiens, UniProt P37231); experiment: AP2-PPRE luciferase assay in HEK-293 cells; format: cell-based
T1 construct: expressed in transfected cells; host or cells: HEK-293
T1 sequence (P37231 1-505): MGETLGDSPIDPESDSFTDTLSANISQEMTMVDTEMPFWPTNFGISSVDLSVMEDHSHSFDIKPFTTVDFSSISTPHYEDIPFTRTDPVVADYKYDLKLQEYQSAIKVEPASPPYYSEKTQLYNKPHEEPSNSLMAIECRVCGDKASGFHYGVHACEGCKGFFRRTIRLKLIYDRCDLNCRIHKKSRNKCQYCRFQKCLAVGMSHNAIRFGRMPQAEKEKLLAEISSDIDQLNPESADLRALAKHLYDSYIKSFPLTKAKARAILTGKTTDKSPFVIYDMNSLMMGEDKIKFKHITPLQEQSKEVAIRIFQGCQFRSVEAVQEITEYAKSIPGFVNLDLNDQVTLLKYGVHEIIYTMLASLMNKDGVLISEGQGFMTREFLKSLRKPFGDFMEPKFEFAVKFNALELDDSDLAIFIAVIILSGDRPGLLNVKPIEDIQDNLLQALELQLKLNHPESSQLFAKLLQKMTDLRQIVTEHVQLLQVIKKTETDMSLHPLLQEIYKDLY
T1 sequence (P19793 1-462 partner): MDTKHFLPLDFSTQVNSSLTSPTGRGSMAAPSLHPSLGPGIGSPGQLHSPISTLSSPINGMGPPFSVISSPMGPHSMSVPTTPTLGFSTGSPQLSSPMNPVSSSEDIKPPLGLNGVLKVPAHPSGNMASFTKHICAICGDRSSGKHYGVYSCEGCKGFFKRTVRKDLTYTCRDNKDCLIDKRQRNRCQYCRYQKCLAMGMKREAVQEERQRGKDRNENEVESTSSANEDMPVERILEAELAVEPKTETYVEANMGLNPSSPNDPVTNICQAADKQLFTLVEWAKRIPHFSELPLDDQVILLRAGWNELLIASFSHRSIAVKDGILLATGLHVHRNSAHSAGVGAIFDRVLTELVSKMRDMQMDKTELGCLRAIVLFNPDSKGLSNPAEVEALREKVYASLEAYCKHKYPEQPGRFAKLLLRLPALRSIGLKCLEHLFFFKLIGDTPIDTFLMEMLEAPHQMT
Excerpt: (§1) To validate the specificity of the novel compounds towards activation of PPARγ/δ targets, we tested the compounds capacity to bind to select PPARγ/δ Peroxisome Proliferator Response Elements (PPRE). The PPRE are unique sites located in the promoter region where PPARs bind and transcriptionally activate the target genes. AP2-PPRE is the PPARγ target involved in adipocyte growth and differentiation. PDK4-PPRE is a PPARδ target involved in regulating energy metabolism in the cell. These PPREs were inserted into a PGL3 luciferase vectors containing CMV promoters (ADDGENE) using PCR. These vectors were co-transfected with RXR, PPARγ/PPARδ and p-galactosidase vectors into HEK-293 cells using Lipofectamine 2000 (Invitrogen). Relative light units (RLU) were measured using a Glomax Luminometer (Promega). Data were standardized to p-galactosidase activity using ONPG (Promega).

PPARδ (PDK4-PPRE) = target: T2, PPARδ (PDK4-PPRE) (Homo sapiens, UniProt Q03181); experiment: PDK4-PPRE luciferase assay in HEK-293 cells; format: cell-based
T2 construct: expressed in transfected cells; host or cells: HEK-293
T2 sequence (Q03181 1-441): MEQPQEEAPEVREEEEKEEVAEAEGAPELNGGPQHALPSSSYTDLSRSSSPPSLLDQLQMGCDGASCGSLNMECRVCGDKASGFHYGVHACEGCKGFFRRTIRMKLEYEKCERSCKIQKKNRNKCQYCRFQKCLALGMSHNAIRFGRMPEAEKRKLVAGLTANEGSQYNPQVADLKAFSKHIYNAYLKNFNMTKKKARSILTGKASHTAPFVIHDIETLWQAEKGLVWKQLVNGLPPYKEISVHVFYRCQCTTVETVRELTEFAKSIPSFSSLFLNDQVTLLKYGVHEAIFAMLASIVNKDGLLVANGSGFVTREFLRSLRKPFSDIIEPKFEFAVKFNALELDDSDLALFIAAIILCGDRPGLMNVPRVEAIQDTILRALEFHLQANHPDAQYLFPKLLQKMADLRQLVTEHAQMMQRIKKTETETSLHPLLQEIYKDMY
T2 sequence (P19793 1-462 partner): T1 sequence (P19793 1-462 partner)
Excerpt: as §1

3T3-L1 adipocytes = experiment: Lipid accumulation by oil red-o staining; format: cell-based; conditions: 6 days, oil red-o stain
Experimental: 3T3L1 adipocytes were cultured and treated with the novel compounds for a period of 6 days. Lipid accumulation was determined by oil red-o staining, and measured the absorbance spectrophotometrically at a wavelength of 510 nm and standardized to total protein concentrations. Data from lipid accumulation studies were compared to cells treated with rosiglitazone (a full PPARγ agonist).

PPARγ/δ targets = experiment: mRNA analyses of PPARγ/δ targets in 3T3-L1 adipocytes; format: cell-based; conditions: 10 μM
Excerpt: Compound 9 increased the gene expression of PPARγ targets MCAD, HSL, ATGL and adiponectin.

[1] = Heart size (heart weight to body weight ratio); format: in vivo; conditions: 10 mg/kg oral daily for 1 month, wild type and db/db mice
Experimental: Diabetic db/db mice were fed a normal rodent chow diet. […] Mice were then weighed and their hearts were extracted and weighed. The heart weight of the mice compared to the body weight of the mice was then calculated based upon heart weight to body weight ratio.

db/db mice = experiment: Y maze behavioral test, compound 9; format: in vivo; conditions: oral, 1 mg/kg
Experimental: Groups of mice can be subjected to Y-maze tests and object recognition tests (ORT) to determine the improvement of working and declarative memory. Briefly the Y-maze test involves the novel arm being blocked, so mice are allowed to explore the other two arms for 15 minutes. Appropriate external and internal cues are assigned for each arm. After 15 minute training sessions, the mice are caged in the same room for 4 hours (holding session) followed by the novel arm exploration where mice are allowed to explore the novel arm for […].

[2] = Accumulation in the brain after repeated dosing; format: in vivo, mice; conditions: 10 mg/kg, after 3 weeks
Experimental: Thus, a 10 mg/kg dose for 4 weeks can be administered.

[3] = Biodistribution by LC-Mass Spectral analysis; conditions: mice; for concentration at 4 h: mouse, po, 3 mg/kg, 3 mg/kg (table)

Binding affinity for the AP2-PPRE (PPARγ (AP2-PPRE); luciferase assay, HEK-293 cells, 10 μM): less binding affinity | Activation of the AP2-PPRE (PPARγ (AP2-PPRE); transcriptional assays): minimally activates | Binding affinity for the PDK4-PPRE (PPARδ (PDK4-PPRE)): strong binding affinity | Accumulation in the brain [2]: accumulate in the brain | Detection in the brain (crosses the blood brain barrier) ([3]; oral, 4 hours): detected | concentration at 4 h ([3]; adipose, Concentration): 40.4 ng/mL | concentration at 4 h ([3]; adipose, Tissue Concentration): 15.2 ng/mL | concentration at 4 h ([3]; adipose, Tissue Distribution): 3.47 ng/mL | concentration at 4 h ([3]; blood, Concentration): 144 ng/mL | concentration at 4 h ([3]; brain, Concentration): 38.7 ng/mL | concentration at 4 h ([3]; brain, Tissue Concentration): 17.2 ng/mL | concentration at 4 h ([3]; brain, Tissue Distribution): 2.96 ng/mL | concentration at 4 h ([3]; heart, Concentration): 22.1 ng/mL | concentration at 4 h ([3]; heart, Tissue Concentration): 3.19 ng/mL | concentration at 4 h ([3]; heart, Tissue Distribution): 1.35 ng/mL | concentration at 4 h ([3]; liver, Concentration): 200 ng/mL | concentration at 4 h ([3]; liver, Tissue Concentration): 24.8 ng/mL | concentration at 4 h ([3]; liver, Tissue Distribution): 11.9 ng/mL
SMILES: Cc1ccc(CNCCCN(Cc2ccc(C(=O)O)cc2)Cc2cc(C(F)(F)F)cc(C(F)(F)F)c2)cc1 [Compound 9]
Lipid accumulation (3T3-L1 adipocytes): less lipid accumulation | Lipid accumulation (3T3-L1 adipocytes; listed as compound 9): negligible effects | Expression of genes associated with lipid accumulation and synthesis (FATP, CD36, DGAT) (PPARγ/δ targets): marginally induced | Gene expression of PDK4 (PPARγ/δ targets): increased | Gene expression of PPARγ targets MCAD, HSL, ATGL and adiponectin (PPARγ/δ targets): increased | Heart size [1]: lacks increase in heart size; also recorded: decreased heart size | Cognition in Y maze behavioral tests (db/db mice): improves cognition
